Patent US4021545A, “Complement inhibitors” (priority 1976, dated 1977)
“And” between values parts separate entries of the source, which are not always exact repeats. Equal entries are not always repeated.

How the values were obtained:
[1] = tested on: activated human C1; test: Test, Code 026 (C1 inhibitor); assay type: biochemical; conditions: serial two-fold dilution assay; higher well number indicates higher activity
Procedure: (§1) This test measures the ability of activated human C1 to destroy fluid phase human C2 in the presence of C4 and appropriate dilutions of the test compound. […] Inhibition of the shunt pathway results in failure of lysis; (iv) Forssman Test -- Here, the well known complement dependent lesion, Forssman vasculitis, is produced in guinea pigs by intradermal injection of rabbit anti-Forssman antiserum. […] The complement level is determined in undiluted serum by the capillary tube method of U.S. Pat. No. 3,876,376 and compared to undosed control guinea pigs; and (vii) Cap 50 Test -- Here, appropriate amounts of the test compound are added to a pool of guinea pig serum in vitro, after which the undiluted serum capillary tube assay referred to above is run.

[2] = tested on: late components of human complement (C3-C9); test: Test, Code 035 (C3-C9 inhibitor); assay type: biochemical; conditions: serial two-fold dilution assay; higher well number indicates higher activity; lysis of EAC 142
Procedure: as §1

[3] = tested on: shunt pathway activated by cobra venom factor; assay type: cell-based; conditions: serial two-fold dilution assay; higher well number indicates higher activity; human erythrocytes in autologous serum
Procedure: as §1

[4] = tested on: complement in pool of guinea pig serum; test: Cap 50 Test; assay type: biochemical; conditions: in vitro, undiluted guinea pig serum, capillary tube assay
Procedure: as §1

[5] = tested on: whole complement; conditions: 200 mg/kg, percent inhibition of serum complement vs simultaneous controls
Procedure: With reference to Table I, guinea pigs weighing about 300 g were dosed intravenously (IV) or intraperitoneally (IP) with 200 mg/kg of the test compound dissolved in saline and adjusted to pH 7-8. One hour after dosing, the guinea pigs were decapitated, blood was collected and the serum separated. The serum was tested for whole complement using the capillary tube assay. Percent inhibition was calculated by comparison with simultaneous controls.

## Inulin, poly(H-sulfate)salt with triethylamine
[1]
  Cl 026: 8 wells
[2]
  C-Late 035: 5 wells
[3]
  Shunt Inhibit. 036: 5 wells
[4]
  Cap 50: 160
[5]; 2 Hr.
  In Vivo Activity Guinea Pig (IV) 2 Hr.: -97
[5]; 30 Hr.
  In Vivo Activity Guinea Pig (IV) 30 Hr.: -95
[5]; 120 Hr.
  In Vivo Activity Guinea Pig (IV) 120 Hr.: -91

## Inulin, poly(H-sulfate)salt with trimethylamine
[1]
  Cl 026: 8 wells
[2]
  C-Late 035: 6 wells
[3]
  Shunt Inhibit. 036: 5 wells
[4]
  Cap 50: 131

## Inulin, poly(H-sulfate)sodium salt [INULIN, POLY(H-SULFATE) SODIUM SALT]
[1]
  Cl 026: 7 wells and 10 wells
[2]
  C-Late 035: 5 wells and 7 wells
[3]
  Shunt Inhibit. 036: 5 wells
[4]
  Cap 50: 100 and 94 and 92
